Data: ChEMBL document CHEMBL4680151, “Proton pump inhibitors selectively suppress MLL rearranged leukemia cells via disrupting MLL1-WDR5 protein-protein interaction” (Eur J Med Chem, 2020)
Active and inactive are the calls of the source. The rule behind the calls is not given here.

Legend:
[1] = molecular target: Histone-lysine N-methyltransferase 2A/WDR5 (Homo sapiens, UniProt P61964); experiment: Inhibition of MLL1-WDR5 interaction […] assessed as reduction in MLL1 binding to WDR5 WIN site by 5-FAM probe based fluorescence polarization assay
[2] = Cytotoxicity against HUVEC cells; format: cell-based; settings: human
MOLM-13 = experiment: Antiproliferative activity against human MOLM-13 cells harboring MLL1-AF9; format: functional
K562 = experiment: Antiproliferative activity against human K562 cells harboring MLL1; format: functional
[3] = Cytotoxicity against human L02 cells; format: cell-based
MV4-11 [4] = experiment: Antiproliferative activity against human MV4-11 cells harboring MLL1-AF4; format: functional
MV4-11 [5] = experiment: Induction of apoptosis in human MV4-11 cells harboring MLL1-AF4 assessed as viable cells at 25 uM incubated for 72 hrs by annexin V-FITC and propidium iodide staining based assay (reference value: 93.75 %); format: functional; settings: read-out: Activity
MV4-11 [6] = experiment: Induction of apoptosis in human MV4-11 cells harboring MLL1-AF4 assessed as necrotic cells at 5 uM incubated for 72 hrs by annexin V-FITC and propidium iodide staining based assay (reference value: 0.05 %); format: functional
[7] = molecular target: T1, Histone-lysine N-methyltransferase 2A/WDR5 (Homo sapiens) (UniProt P61964+Q03164); experiment: Inhibition of MLL1-WDR5 interaction in human MV4-11 cells assessed as downregulation of Hoxa9 gene expression at 10 uM incubated for 6 days by qRT-PCR analysis relative to control; format: cell-based; settings: time 6.0 day
[8] = molecular target: T1, Histone-lysine N-methyltransferase 2A/WDR5 (Homo sapiens); experiment: Inhibition of MLL1-WDR5 interaction in human MV4-11 cells assessed as reduction in H3K4me1 expression incubated for 6 days by Western blot analysis; format: cell-based; settings: dose 0.1-20 µM, time 6.0 day
MV4-11 [9] = experiment: Induction of apoptosis in human MV4-11 cells harboring MLL1-AF4 assessed as viable cells at 10 uM incubated for 72 hrs by annexin V-FITC and propidium iodide staining based assay (reference value: 93.75 %); format: functional; settings: read-out: Activity
[10] = molecular target: T1, Histone-lysine N-methyltransferase 2A/WDR5 (Homo sapiens); experiment: Inhibition of MLL1-WDR5 interaction in human MV4-11 cells assessed as downregulation of Meis1 gene expression at 10 uM incubated for 6 days by qRT-PCR analysis relative to control; format: cell-based; settings: time 6.0 day
MV4-11 [11] = experiment: Induction of apoptosis in human MV4-11 cells harboring MLL1-AF4 assessed as late apoptotic cells at 25 uM incubated for 72 hrs by annexin V-FITC and propidium iodide staining based assay (reference value: 1.85 %); format: functional
[12] = molecular target: T1, Histone-lysine N-methyltransferase 2A/WDR5 (Homo sapiens); experiment: Inhibition of MLL1-WDR5 interaction in human MV4-11 cells assessed as reduction in H3K4me2 expression incubated for 6 days by Western blot analysis; format: cell-based; settings: dose 0.1-20 µM, time 6.0 day
[13] = molecular target: T1, Histone-lysine N-methyltransferase 2A/WDR5 (Homo sapiens); experiment: Inhibition of MLL1-WDR5 interaction in human MV4-11 cells assessed as downregulation of Meis1 gene expression incubated for 6 days by qRT-PCR analysis; format: cell-based; settings: dose 1-20 µM, time 6.0 day
MV4-11 [14] = experiment: Induction of apoptosis in human MV4-11 cells harboring MLL1-AF4 assessed as early apoptotic cells at 25 uM incubated for 72 hrs by annexin V-FITC and propidium iodide staining based assay (reference value: 4.35 %); format: functional
MV4-11 [15] = experiment: Induction of apoptosis in human MV4-11 cells harboring MLL1-AF4 assessed as early apoptotic cells at 5 uM incubated for 72 hrs by annexin V-FITC and propidium iodide staining based assay (reference value: 4.35 %); format: functional
MV4-11 [16] = experiment: Induction of apoptosis in human MV4-11 cells harboring MLL1-AF4 assessed as viable cells at 5 uM incubated for 72 hrs by annexin V-FITC and propidium iodide staining based assay (reference value: 93.75 %); format: functional; settings: read-out: Activity
MV4-11 [17] = experiment: Induction of apoptosis in human MV4-11 cells harboring MLL1-AF4 assessed as necrotic cells at 25 uM incubated for 72 hrs by annexin V-FITC and propidium iodide staining based assay (reference value: 0.05 %); format: functional
MV4-11 [18] = experiment: Induction of apoptosis in human MV4-11 cells harboring MLL1-AF4 incubated for 72 hrs by annexin V-FITC and propidium iodide staining based assay; format: functional, cell-based; settings: dose 5-25 µM
MV4-11 [19] = experiment: Induction of apoptosis in human MV4-11 cells harboring MLL1-AF4 assessed as necrotic cells at 10 uM incubated for 72 hrs by annexin V-FITC and propidium iodide staining based assay (reference value: 0.05 %); format: functional
[20] = molecular target: T1, Histone-lysine N-methyltransferase 2A/WDR5 (Homo sapiens); experiment: Inhibition of MLL1-WDR5 interaction in human MV4-11 cells assessed as downregulation of Hoxa9 gene expression incubated for 6 days by qRT-PCR analysis; format: cell-based; settings: dose 1-20 µM, time 6.0 day
MV4-11 [21] = experiment: Induction of apoptosis in human MV4-11 cells harboring MLL1-AF4 assessed as late apoptotic cells at 10 uM incubated for 72 hrs by annexin V-FITC and propidium iodide staining based assay (reference value: 1.85 %); format: functional
MV4-11 [22] = experiment: Induction of apoptosis in human MV4-11 cells harboring MLL1-AF4 assessed as late apoptotic cells at 5 uM incubated for 72 hrs by annexin V-FITC and propidium iodide staining based assay (reference value: 1.85 %); format: functional
MV4-11 [23] = experiment: Induction of apoptosis in human MV4-11 cells harboring MLL1-AF4 assessed as early apoptotic cells at 10 uM incubated for 72 hrs by annexin V-FITC and propidium iodide staining based assay (reference value: 4.35 %); format: functional
[24] = molecular target: T1, Histone-lysine N-methyltransferase 2A/WDR5 (Homo sapiens); experiment: Inhibition of MLL1-WDR5 interaction in human MV4-11 cells assessed as reduction in H3K4me2 expression at 5 uM incubated for 6 days by Western blot analysis; format: cell-based; settings: time 6.0 day
[25] = molecular target: T1, Histone-lysine N-methyltransferase 2A/WDR5 (Homo sapiens); experiment: Inhibition of MLL1-WDR5 interaction in human MV4-11 cells assessed as reduction in H3K4me1 expression at 5 uM incubated for 6 days by Western blot analysis; format: cell-based; settings: time 6.0 day
[26] = molecular target: T1, Histone-lysine N-methyltransferase 2A/WDR5 (Homo sapiens); experiment: Inhibition of MLL1-WDR5 interaction in human MV4-11 cells assessed as downregulation of Meis1 gene expression at 5 uM incubated for 6 days by qRT-PCR analysis; format: cell-based; settings: time 6.0 day
[27] = molecular target: T1, Histone-lysine N-methyltransferase 2A/WDR5 (Homo sapiens); experiment: Inhibition of MLL1-WDR5 interaction in human MV4-11 cells assessed as downregulation of Hoxa9 gene expression at 5 uM incubated for 6 days by qRT-PCR analysis; format: cell-based; settings: time 6.0 day

Row | IC50 [1] [µM] | SMILES | GI50 [2] [µM] | GI50 (MOLM-13) [µM] | GI50 (K562) [µM] | GI50 [3] [µM] | GI50 (MV4-11 [4]) [µM] | other results
1 | > 100 | Cc1cccnc1C[S+]([O-])c1nc2ccccc2[nH]1 (stereo unspecified) |  |  |  |  |  | 
2 | > 100 | COc1c(C)cnc(C[S+]([O-])c2nc3ccccc3o2)c1C (stereo unspecified) |  |  |  |  |  | 
3 | 1.7 | COCCCOc1ccnc(C[S+]([O-])c2nc3cc(OC(F)F)ccc3[nH]2)c1C (stereo unspecified) |  |  |  |  |  | 
4 | 1.8 | COc1ccc2nc([S@@+]([O-])Cc3ncc(C)c(OC)c3C)[nH]c2c1 [ESOMEPRAZOLE] | > 100 | 32 | > 100 | > 100 | 47.6 | 
5 | > 100 | COc1c(C)cnc(C[S+]([O-])c2nc3ccccc3s2)c1C (stereo unspecified) |  |  |  |  |  | 
6 | > 100 | Cc1ccccc1C[S+]([O-])c1nc2ccccc2[nH]1 (stereo unspecified) |  |  |  |  |  | 
7 | 1.1 | COc1c(C)cnc(C[S+]([O-])c2nc3ccccc3[nH]2)c1C (stereo unspecified) |  |  |  |  |  | 
8 | 1.7 | COc1ccc2[nH]c([S+]([O-])Cc3ncc(C)c(OC)c3C)nc2c1 (stereo unspecified) [OMEPRAZOLE] | > 100 | 34.1 | > 100 | > 100 | 37.3 | 
9 | > 100 | COc1c(C)cnc(CSc2nc3ccccc3[nH]2)c1C |  |  |  |  |  | 
10 | > 100 | COCCCOc1ccnc(CS(=O)(=O)c2nc3cc(OC(F)F)ccc3[nH]2)c1 |  |  |  |  |  | 
11 |  | Cc1c(F)c(N)cc(C(=O)Nc2cc(-c3ccc(N)cc3)ccc2N2CCN(C)CC2)c1Cl |  |  |  |  |  | inhibition [24]: Active; inhibition [25]: Active; inhibition [26]: Active; inhibition [27]: Active

Row | SMILES | IC50 [1] [µM] | GI50 [2] [µM] | GI50 (MOLM-13) [µM] | GI50 (K562) [µM] | GI50 [3] [µM] | GI50 (MV4-11 [4]) [µM] | other results
12 | Cc1c(OCC(F)(F)F)ccnc1C[S+]([O-])c1nc2ccccc2[nH]1 (stereo unspecified) [LANSOPRAZOLE] | 5.9 | > 100 | 30.1 | > 100 | > 100 | 21.1 | 
13 | COCCCOc1ccnc(C[S+]([O-])c2nc3ccccc3[nH]2)c1C (stereo unspecified) [RABEPRAZOLE] | 0.49 | > 100 | 17.5 | > 100 | > 100 | 14.1 | viability at 25 µM (MV4-11 [5]): 76.3%; Activity (MV4-11 [6]): 0.2%; inhibition [7]: 50%; inhibition [8]: Dose-dependent effect; viability at 10 µM (MV4-11 [9]): 86.2%; inhibition [10]: 50%; Activity (MV4-11 [11]): 16.5%; inhibition [12]: Dose-dependent effect; inhibition [13]: Dose-dependent effect; Activity (MV4-11 [14]): 6.4%; Activity (MV4-11 [15]): 7.75%; viability at 5 µM (MV4-11 [16]): 86.4%; Activity (MV4-11 [17]): 0.8%; Activity (MV4-11 [18]): Dose-dependent effect; Activity (MV4-11 [19]): 0.3%; inhibition [20]: Dose-dependent effect; Activity (MV4-11 [21]): 8.7%; Activity (MV4-11 [22]): 5.65%; Activity (MV4-11 [23]): 4.75%
14 | Cc1c(OCC(F)(F)F)ccnc1C[S@@+]([O-])c1nc2ccccc2[nH]1 [DEXLANSOPRAZOLE] | 5.7 | > 100 | 27.2 | > 100 | > 100 | 25.1 | 
